From the supplement of paper PMC13380429

Key:
Settings in all cases: 72 h
U2OS [1] = experiment: relative viability EC50 (midpoint between 100% and the lowest measured viability); higher = less toxic
Vero E6 [2] = experiment: as above
Calu-3 [3] = experiment: as above
HepG2 [4] = experiment: as above
Caco-2 [5] = experiment: as above
U2OS [6] = experiment: cell viability relative to DMSO; higher = less toxic
Vero E6 [7] = experiment: as above
Calu-3 [8] = experiment: as above
HepG2 [9] = experiment: as above
Caco-2 [10] = experiment: as above
U2OS [11] = experiment: drug sensitivity score (DSS) for viability; higher = more toxic; extreme values may be limits of the assay
Vero E6 [12] = experiment: as above
Calu-3 [13] = experiment: as above
HepG2 [14] = experiment: as above
Caco-2 [15] = experiment: as above

SMILES	relative viability EC50 (U2OS [1])	relative viability EC50 (Vero E6 [2])	relative viability EC50 (Calu-3 [3])	relative viability EC50 (HepG2 [4])	relative viability EC50 (Caco-2 [5])	cell viability (U2OS [6]; 1 nM)	cell viability (U2OS [6]; 10 nM)	cell viability (U2OS [6]; 100 nM)	cell viability (U2OS [6]; 1000 nM)	cell viability (U2OS [6]; 10000 nM)	cell viability (Vero E6 [7]; 1 nM)	cell viability (Vero E6 [7]; 10 nM)	cell viability (Vero E6 [7]; 100 nM)	cell viability (Vero E6 [7]; 1000 nM)	cell viability (Vero E6 [7]; 10000 nM)	cell viability (Calu-3 [8]; 1 nM)	cell viability (Calu-3 [8]; 10 nM)	cell viability (Calu-3 [8]; 100 nM)	cell viability (Calu-3 [8]; 1000 nM)	cell viability (Calu-3 [8]; 10000 nM)	cell viability (HepG2 [9]; 1 nM)	cell viability (HepG2 [9]; 10 nM)	cell viability (HepG2 [9]; 100 nM)	cell viability (HepG2 [9]; 1000 nM)	cell viability (HepG2 [9]; 10000 nM)	cell viability (Caco-2 [10]; 1 nM)	cell viability (Caco-2 [10]; 10 nM)	cell viability (Caco-2 [10]; 100 nM)	cell viability (Caco-2 [10]; 1000 nM)	cell viability (Caco-2 [10]; 10000 nM)	drug sensitivity score (U2OS [11])	drug sensitivity score (Vero E6 [12])	drug sensitivity score (Calu-3 [13])	drug sensitivity score (HepG2 [14])	drug sensitivity score (Caco-2 [15])
C[N+]1(C)CCC(OC(=O)C(c2ccccc2)c2ccccc2)CC1 [4-DAMP]	> 10 µM	> 10 µM	> 10 µM	> 10 µM	> 10 µM	103%	97.7%	99.2%	97.7%	99.5%	98.5%	99.8%	99%	97.4%	96%	85.8%	87.6%	92.9%	101%	100%	90.8%	97%	103%	100%	90.9%	105%	96.3%	106%	102%	87.4%	0	0	0	0	0
NCC(=O)CCC(=O)O [5-aminolevulinic-acid]	> 10 µM	> 10 µM	> 10 µM	> 10 µM	> 10 µM	104%	96.9%	99%	94.6%	95.3%	93.7%	94%	91.7%	91.3%	97.8%	96.9%	104%	105%	104%	104%	91.4%	99%	92.1%	104%	104%	100%	103%	98.9%	86.2%	94%	0	0	0	0	1.1
CCCCCCCCC(=O)NCc1cc(OC)c(O)cc1I [6-iodo-nordihydrocapsaicin]	> 10 µM	> 10 µM	> 10 µM	> 10 µM	> 10 µM	97.4%	98%	101%	96.6%	92.5%	88.5%	99.4%	92.2%	92.5%	104%	104%	98.6%	108%	109%	104%	96.6%	110%	95.6%	104%	103%	97.9%	101%	103%	97.7%	88.6%	0	0	0	0	0.1
CCN(CC)C(=O)c1ccc(C2=CC3(CCNCC3)Oc3cccc(O)c32)cc1 [ADL5859]	> 10 µM	> 10 µM	> 10 µM	> 10 µM	> 10 µM	95.4%	98.2%	100%	103%	104%	94.1%	104%	94.9%	98.5%	108%	92.9%	96.9%	91.8%	105%	105%	103%	99.5%	104%	100%	101%	93%	99.8%	91.9%	97.3%	110%	0	0	0	0	0
Oc1c(I)cc(I)cc1I [AM-24]	> 10 µM	> 10 µM	> 10 µM	> 10 µM	> 10 µM	97.8%	97.8%	103%	97.7%	104%	96.8%	103%	99.6%	104%	97.2%	96.7%	95%	104%	97.3%	101%	95.4%	103%	89.9%	108%	102%	99.5%	97.6%	93%	88.5%	101%	0	0	0	0	0
O=C(Nc1ccc2c(O)cc(S(=O)(=O)O)cc2c1)Nc1ccc2c(O)cc(S(=O)(=O)O)cc2c1 [AMI-1]	> 10 µM	> 10 µM	> 10 µM	> 10 µM	> 10 µM	103%	102%	99%	102%	101%	97.2%	102%	102%	106%	96%	104%	100%	100%	109%	99.8%	101%	110%	106%	107%	94.3%	87%	97.8%	92.8%	93.5%	97.2%	0	0	0	0	0
C=CC(=O)Nc1cc(Nc2nccc(-c3c[nH]c4ccccc34)n2)c(OC)cc1N(C)CCN(C)C [AZ5104]	1.13 µM	0.397 µM	0.0093 µM	1.19 µM	0.563 µM	104%	95.2%	95.4%	59.6%	8.6%	88.8%	93.8%	61.6%	49.7%	0.2%	82.8%	56.2%	32.5%	33.3%	17.4%	98.2%	94.2%	84.2%	64%	9.2%	89.1%	87.6%	81.7%	62.1%	24.3%	9.8	15.6	27.9	9.3	10.3
